The source of these data is PubChem BioAssay AID342 (DTP/NCI, 2004).

The structures appear in SMILES notation. Values joined by “and” are separate entries in the source; they are usually repeats but may differ in a detail not shown here. Identical values can stand only once.

Usually T/C stands for the result in the treated group divided by that in the control group, in per cent.

The assay deals with Swiss mice, Sarcoma 180 sc, mean tumor weight T/C. The experiment in a line: NCI In Vivo Anticancer Drug Screen. Data for tumor model Sarcoma 180 (subcutaneous) in Swiss mice. Particulars: endpoint: mean tumor weight, higher = larger tumour. An outline of the steps: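 Readout is the ratio of treated-group measurement to vehicle-control measurement (T/C), based on survival or tumor size in mice carrying transplanted tumors.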

[1] abbreviates: dose: 15.5 mg/kg/injection, schedule: Q01DX007 (ip), vehicle: other.

In the case of `COC(=O)[C@H]1[C@H]2C[C@@H]3c4[nH]c5cc(OC)ccc5c4CCN3C[C@H]2C[C@@H](OC(=O)c2cc(OC)c(OC)c(OC)c2)[C@@H]1OC`, the T/C runs as follows: (dose: 0.44 mg/kg/injection, schedule: Q01DX007 (ip), vehicle: carboxymethylcellulose (CMC)) 101 % of control; (dose: 0.5 mg/kg/injection, schedule: Q01DX007 (ip), vehicle: carboxymethylcellulose (CMC)) 91 % of control; (dose: 0.66 mg/kg/injection, schedule: Q01DX007 (ip), vehicle: carboxymethylcellulose (CMC)) 79 % of control; (dose: 2.0 mg/kg/injection, schedule: Q01DX007 (ip), vehicle: carboxymethylcellulose (CMC)) 35 % of control; (dose: 2.3 mg/kg/injection, schedule: Q01DX007 (ip), vehicle: carboxymethylcellulose (CMC)) 42 % of control; (dose: 3.4 mg/kg/injection, schedule: Q01DX007 (ip), vehicle: carboxymethylcellulose (CMC)) 18 % of control.
In the case of `C1CCCNCC1`, the T/C was 92 % of control under setting [1]; 69 % of control (dose: 31.0 mg/kg/injection, schedule: Q01DX007 (ip), vehicle: other); 103 % of control (dose: 62.5 mg/kg/injection, schedule: Q01DX007 (ip), vehicle: other); 69 % of control (dose: 125.0 mg/kg/injection, schedule: Q01DX007 (ip), vehicle: other); 69 % of control (dose: 200.0 mg/kg/injection, schedule: Q01DX007 (ip), vehicle: other).
Take `O=C1c2ccccc2C(=O)c2c1ccc1c2[nH]c2ccccc21`: the T/C reads like this: (dose: 82.0 mg/kg/injection, schedule: Q01DX007 (ip), vehicle: saline) 48 % of control; (dose: 125.0 mg/kg/injection, schedule: Q01DX007 (ip), vehicle: saline) 50 % of control; (dose: 187.0 mg/kg/injection, schedule: Q01DX007 (ip), vehicle: saline) 23 % of control; (dose: 280.0 mg/kg/injection, schedule: Q01DX007 (ip), vehicle: saline) 42 % of control.
On to `CCCCN(C)N=Nc1n[nH]nc1C(N)=O`, for which the T/C is 93 % of control (dose: 16.0 mg/kg/injection, schedule: Q01DX007 (ip), vehicle: carboxymethylcellulose (CMC)); 85 % of control (dose: 31.0 mg/kg/injection, schedule: Q01DX007 (ip), vehicle: carboxymethylcellulose (CMC)); 38 % of control (dose: 62.0 mg/kg/injection, schedule: Q01DX007 (ip), vehicle: carboxymethylcellulose (CMC)).
As to `CCN(CC)c1ccc(/C=C/c2ccnc3ccccc23)cc1`, the T/C was 77 % of control (dose: 1.94 mg/kg/injection, schedule: Q01DX007 (ip), vehicle: carboxymethylcellulose (CMC)); 66 % of control (dose: 3.88 mg/kg/injection, schedule: Q01DX007 (ip), vehicle: carboxymethylcellulose (CMC)); 63 % of control (dose: 6.2 mg/kg/injection, schedule: Q01DX007 (ip), vehicle: other); 96 % of control (dose: 7.5 mg/kg/injection, schedule: Q01DX007 (ip), vehicle: other); 40 % of control (dose: 7.75 mg/kg/injection, schedule: Q01DX007 (ip), vehicle: carboxymethylcellulose (CMC)); 58 % of control (dose: 7.75 mg/kg/injection, schedule: Q01DX007 (ip), vehicle: other). Further, the T/C was 107 % of control (dose: 10.0 mg/kg/injection, schedule: Q01DX007 (ip), vehicle: other); 72 % of control (dose: 10.33 mg/kg/injection, schedule: Q01DX007 (ip), vehicle: other); 110 % of control (dose: 12.0 mg/kg/injection, schedule: Q01DX007 (ip), vehicle: other); 93 % of control and 110 % of control (dose: 12.31 mg/kg/injection, schedule: Q01DX007 (ip), vehicle: carboxymethylcellulose (CMC)); 90 % of control under setting [1]; 59 % of control and 70 % of control (dose: 24.62 mg/kg/injection, schedule: Q01DX007 (ip), vehicle: carboxymethylcellulose (CMC)). The T/C (dose: 49.25 mg/kg/injection, schedule: Q01DX007 (ip), vehicle: carboxymethylcellulose (CMC)) is 53 % of control.
On to `O=NN(CCCl)C(=O)NCCCl`, for which the T/C runs as follows: (dose: 1.5 mg/kg/injection, schedule: Q01DX007 (ip), vehicle: saline) 27 % of control; (dose: 2.6 mg/kg/injection, schedule: Q01DX007 (ip), vehicle: saline) 79 % of control; (dose: 3.0 mg/kg/injection, schedule: Q01DX007 (ip), vehicle: saline) 44 % of control; (dose: 3.0 mg/kg/injection, schedule: Q01DX007 (oral), vehicle: carboxymethylcellulose (CMC)) 60 % of control; (dose: 4.0 mg/kg/injection, schedule: Q01DX007 (ip), vehicle: carboxymethylcellulose (CMC)) 75 % of control; (dose: 4.3 mg/kg/injection, schedule: Q01DX007 (ip), vehicle: saline) 90 % of control. The T/C is 46 % of control and 58 % of control (dose: 6.0 mg/kg/injection, schedule: Q01DX007 (ip), vehicle: carboxymethylcellulose (CMC)); 47 % of control (dose: 6.0 mg/kg/injection, schedule: Q01DX007 (ip), vehicle: saline); 32 % of control (dose: 6.0 mg/kg/injection, schedule: Q01DX007 (oral), vehicle: carboxymethylcellulose (CMC)); 62 % of control (dose: 7.2 mg/kg/injection, schedule: Q01DX007 (ip), vehicle: saline); 35 % of control (dose: 8.0 mg/kg/injection, schedule: Q01DX007 (ip), vehicle: carboxymethylcellulose (CMC)); 27 % of control (dose: 10.0 mg/kg/injection, schedule: Q01DX007 (ip), vehicle: carboxymethylcellulose (CMC)). Also, the T/C was 10 % of control (dose: 12.0 mg/kg/injection, schedule: Q01DX007 (ip), vehicle: carboxymethylcellulose (CMC)); 36 % of control and 44 % of control (dose: 12.0 mg/kg/injection, schedule: Q01DX007 (ip), vehicle: saline); 12 % of control (dose: 12.0 mg/kg/injection, schedule: Q01DX007 (oral), vehicle: carboxymethylcellulose (CMC)); 24 % of control (dose: 20.0 mg/kg/injection, schedule: Q01DX007 (ip), vehicle: saline); 6 % of control (dose: 24.0 mg/kg/injection, schedule: Q01DX007 (oral), vehicle: carboxymethylcellulose (CMC)).
With `C=CN1CCCC1=O`, the T/C is 106 % of control (dose: 93.0 mg/kg/injection, schedule: Q01DX007 (ip), vehicle: saline); 70 % of control (dose: 98.0 mg/kg/injection, schedule: Q01DX007 (ip), vehicle: saline); 57 % of control (dose: 100.0 mg/kg/injection, schedule: Q01DX007 (ip), vehicle: saline); 80 % of control (dose: 124.0 mg/kg/injection, schedule: Q01DX007 (ip), vehicle: saline); 65 % of control (dose: 148.0 mg/kg/injection, schedule: Q01DX007 (ip), vehicle: saline); 78 % of control (dose: 150.0 mg/kg/injection, schedule: Q01DX007 (ip), vehicle: saline). Besides, the T/C is, setting by setting: (dose: 166.0 mg/kg/injection, schedule: Q01DX007 (ip), vehicle: saline) 84 % of control; (dose: 500.0 mg/kg/injection, schedule: Q01DX007 (ip), vehicle: saline) 9 % of control; (dose: 750.0 mg/kg/injection, schedule: Q01DX007 (ip), vehicle: saline) 20 % of control.
Take `CC(=O)Nc1cc2c(cc1Cl)C(=O)c1cc(Cl)ccc1-2`: the T/C (dose: 55.0 mg/kg/injection, schedule: Q01DX007 (ip), vehicle: carboxymethylcellulose (CMC)) is 75 % of control; the T/C (dose: 83.0 mg/kg/injection, schedule: Q01DX007 (ip), vehicle: carboxymethylcellulose (CMC)) is 53 % of control; the T/C (dose: 125.0 mg/kg/injection, schedule: Q01DX007 (ip), vehicle: carboxymethylcellulose (CMC)) is 39 % of control; the T/C (dose: 187.5 mg/kg/injection, schedule: Q01DX007 (ip), vehicle: carboxymethylcellulose (CMC)) was 26 % of control.
For `O=C(Nc1ccc(NC2=NCCN2)cc1)c1ccc(C(=O)Nc2ccc(NC3=NCCN3)cc2)cc1`, the T/C is, setting by setting: (dose: 2.0 mg/kg/injection, schedule: Q01DX007 (ip), vehicle: saline) 109 % of control; (dose: 4.0 mg/kg/injection, schedule: Q01DX007 (ip), vehicle: saline) 95 % of control; (dose: 8.0 mg/kg/injection, schedule: Q01DX007 (ip), vehicle: saline) 97 % of control; (dose: 16.0 mg/kg/injection, schedule: Q01DX007 (ip), vehicle: saline) 43 % of control.
